From ChEMBL document CHEMBL3272304, “Syntheses of heterocylic fused thiazole acetic acids. 2” (1976) come the findings set out here.

In general, ED50 refers to the dose that gives a 50% effect, or the effect in half of the subjects. By T/C is commonly meant the ratio of treated to control.

Common to all, as to format: functional
The test system of test [1] is Mycobacterium tuberculosis. Nature of the test: Antitubercular activity against Mycobacterium tuberculosis H37Rv.
A further test deals with Mus musculus. Kind of test: Antidepressant activity in po dosed mouse assessed as antagonism of reserpine-induced ptosis.
In test [2] the test system is Lewis lung carcinoma cell line. Kind of test: Antimetastatic activity against mouse LLC cells allografted in BDF1 mouse assessed as increase in host survival.
In test [3] the test system is Lewis lung carcinoma cell line. Kind of test: Antimetastatic activity against mouse LLC cells allografted in BDF1 mouse assessed as increase in host survival at 150 mg/kg relative to control.

The source made the active and inactive calls. The calls are words filed in the database; no cut-off is given here.

For `Br.COC(=O)CC1SC2=NCCN2C1(O)c1ccccc1` (configuration not stated), in test [1], the Activity amounted to 5 µg/mL. In addition, the median effective dose (ED50) with Mus musculus came out at 0.5 mg/kg.
For the compound `COC(=O)CC(Sc1nc2ccccc2[nH]1)C(=O)c1ccc(Cl)cc1` (configuration not stated), in test [1], the Activity amounted to 1 µg/mL.
Take `Br.O=C(O)CC1SC2=NCCN2C1(O)c1ccc(Cl)cc1` (configuration not stated): the 50% effective dose (ED50) in the test on Mus musculus was determined as 0.22 mg/kg.
As to `COC(=O)CC1Sc2nc3ccccc3n2C1(O)c1ccc(Cl)cc1` (configuration not stated), in test [2], the outcome was Active. Also, the Activity in test [1] was found to be 2 µg/mL.
The compound `Br.CCOC(=O)CC1SC2=NCCN2C1(O)c1ccc(Cl)cc1` (configuration not stated) showed an Activity in test [1] of 5 µg/mL.
The same measure, in the same setting: next, `NNC(=O)c1ccncc1` [ISONIAZID]: 0.005 µg/mL.
Take `Br.CCOC(=O)CC1SC2=NCCN2C1(O)c1ccccc1` (configuration not stated): the Activity in test [1] was 5 µg/mL. Also, the ED50 with Mus musculus is 0.27 mg/kg.
Consider `CCOC(=O)CC1Sc2nc3ccccc3n2C1(O)c1ccc(Cl)cc1` (configuration not stated), for which, in test [2], the result was Active. The compound further yielded an Activity in test [1] of 1 µg/mL.
As for `CCOC(=O)CC(Sc1nc2ccccc2[nH]1)C(=O)c1ccc(Cl)cc1` (configuration not stated), the Activity in test [1] turned out to be 1 µg/mL.
On to `Br.CCOC(=O)CC1SC2=NCCCN2C1(O)c1ccc(Cl)cc1` (configuration not stated), for which, in the test with Mus musculus, the ED50 was 0.118 mg/kg.
In the case of `Br.COC(=O)CC1SC2=NCCN2C1(O)c1ccc(Cl)cc1` (configuration not stated), the Activity in test [1] came to 1 µg/mL. In addition, the ED50 in the test on Mus musculus came to 0.5 mg/kg.
Compound `Br.COC(=O)CC1Sc2nc3ccccc3n2C1(O)c1ccccc1` (configuration not stated) yielded an Activity in test [1] of 5 µg/mL.
Turning to `O=C(O)CC1Sc2nc3ccccc3n2C1(O)c1ccc(Cl)cc1` (configuration not stated), the T/C in test [3] was 37%.
Regarding `O=C(O)Cc1sc2nc3ccccc3n2c1-c1ccc(Cl)cc1`, in test [2], the outcome was Active.
In test [1], `CCOC(=O)CC1Sc2nc(=O)cc(NC(C)=O)n2C1(O)c1ccc(Cl)cc1` (configuration not stated) had an Activity of 1 µg/mL.
For `Br.O=C(O)CC1SC2=NCCCN2C1(O)c1ccc(Cl)cc1` (configuration not stated), the outcome in test [2] was inactive. Also, in the test on Mus musculus, the ED50 amounted to 0.25 mg/kg.
